{
  "source": "patent US20160264593A1",
  "about": "(priority 2013, published 2016)",
  "key": {"in vivo [1]": {"assay": "in vivo", "details": "male, rat, in vivo; for AUC(0-t): AUC0-t of 100; for AUC(0-inf): AUC0-∞ of 100; for Cmax: Cmax of 100; for Tmax: Tmax of 100; for MRT: MRT of 100; for half-life: T1/2 of 100", "protocol": "A pharmacokinetic study of 151 was conducted in SD rats. The study consisted of two dose levels at 1.0 (iv) and 10 (oral) mg/kg. The blood samples were collected at predetermined times from rats and centrifuged to separate plasma. An LC/MS/MS method was developed to determine the test article in plasma samples. The pharmacokinetic parameters of 151 following iv and oral administration to SD rats were calculated. The absolute bioavailability was evaluated.\nThe final concentration of the test article was 0.2 mg/mL for iv administration and 1.0 mg/mL for oral administration. The test article solutions were administered using the most recent body weight for each animal.\nBlood (approximately 0.3 mL) were collected via orbital plexus into tubes containing sodium heparin at 0.25, 0.5, 1, 2, 3, 5, 7, 9, and 24 hours after oral administration; at 5 min, 15 min, 0.5, 1, 2, 3, 5, 7, 9 and 24 hours after iv administration. Samples were centrifuged for 5 min, at 4° C. with the centrifuge set at 11,000 rpm to separate plasma. The obtained plasma samples were stored frozen at a temperature of about −70° C. until analysis.\nFrozen plasma samples were thawed at room temperature and vortexed thoroughly. With a pipette, an aliquot (30 μL) of plasma was transferred into a 1.5-mL conical polypropylene tube. To each sample, 160 μL of acetonitrile were added. The samples were then vigorously vortex-mixed for 1 min. After centrifugation at 11000 rpm for 5 min, a 15 μL aliquot of the supernatant was injected into the LC-MS/MS system for analysis.\nCalibration standards were prepared by spiking 30 μL of the 151 standard solutions into 30 μL of heparinized blank rat plasma. The nominal standard concentrations in the standard curve were 1.00, 3.00, 10.0, 30.0, 100, 300, 1000 and 3000 ng/mL.\nThe analysis was performed using an LC-MS/MS system consisting of the following components—HPLC system: Agilent 1200 series instrument consisting of G1312B vacuum degasser, G1322A binary pump, G1316B column oven and G1367D autosampler (Agilent, USA); MS/MS system: Agilent 6460 triple quadrupole mass spectrometer, equipped with an APCI Interface (Agilent, USA); Data system: MassHunter Software (Agilent, USA).\nChromatographic separation was carried out at room temperature—Analytical column: C8 column (4.6 mm×150 mm I.D., 5 μm, Agilent, USA); Mobile phase: Acetonitrile:10 mM ammonium acetate (75:25, v/v); Flow rate: 0.80 mL/min; Injection volume: 15 μL.\nThe mass spectrometer was operated in the positive mode. Ionization was performed applying the following parameters: gas temperature, 325° C.; vaporizer temperature, 350° C.; gas flow, 4 L/min; nebulizer, 20 psi; capillary voltage, 4500 V; corona current, 4 μA. 151 was detected using MRM of the transitions m/z 283→m/z 123 and m/z 283→m/z 251, simultaneously. The optimized collision energies of 25 eV and 10 eV were used for m/z 123 and m/z 251, respectively.\nQuantification was achieved by the external standard method. Concentrations of the test article were calculated using a weighted least-squares linear regression (W=1/x^2).\nThe pharmacokinetic parameters were evaluated using WinNonlin version 5.3 (Pharsight Corp., Mountain View, Calif., USA), assuming a non-compartmental model for drug absorption and distribution. • AUC0-t is the area under the plasma concentration-time curve from time zero to last sampling time, calculated by the linear trapezoidal rule. • AUC0-∞ is the area under the plasma concentration-time curve from time zero extrapolating to infinity. • T1/2 is the elimination half-life associated with the terminal (log-linear) elimination phase, which is estimated via linear regression of time vs. log concentrations. • CL is the total body clearance. • Vss is the volume of distribution at steady-state."}, "[2]": {"test_system": "PP2A in circulating white blood cells", "assay": "Inhibition of PP2A in circulating white blood cells after slow iv 100", "format": "in vivo", "details": "rat"}, "[3]": {"assay": "Microsomal stability, human microsomes", "format": "in vitro ADME", "details": "relative to verapamil"}, "[4]": {"details": "rat, in vivo"}, "in vivo [5]": {"assay": "in vivo", "details": "rat, po"}, "[6]": {"details": "Sprague-Dawley (SD), iv, 1 mg/kg, Plasma Concentration of 100"}, "[7]": {"details": "Sprague-Dawley (SD), po, 10 mg/kg"}, "[8]": {"details": "Sprague-Dawley (SD), po, 10 mg/kg, Plasma Concentration of 100"}},
  "data": [
    {"smiles": "CN1CCN(C(=O)C2C3CCC(O3)C2C(=O)O)CC1", "note": "(centres unmarked) [Compound 100, 3-(4-methylpiperazine-1-carbonyl)-7-oxa-bicyclo[2,2,1]-heptane-2-carboxylic acid]", "values": [
      {"measurement": "concentration at 0.083 h", "setting": "in vivo [1]; [6]", "result": 646, "unit": "ng/mL"},
      {"measurement": "concentration at 0.25 h", "setting": "in vivo [1]; [6]", "result": 345, "unit": "ng/mL"},
      {"measurement": "concentration at 0.5 h", "setting": "in vivo [1]; [6]", "result": 308, "unit": "ng/mL"},
      {"measurement": "concentration at 1 h", "setting": "in vivo [1]; [6]", "result": 257, "unit": "ng/mL"},
      {"measurement": "concentration at 2 h", "setting": "in vivo [1]; [6]", "result": 125, "unit": "ng/mL"},
      {"measurement": "concentration at 3 h", "setting": "in vivo [1]; [6]", "result": 32.2, "unit": "ng/mL"},
      {"measurement": "concentration at 5 h", "setting": "in vivo [1]; [6]", "result": 10.2, "unit": "ng/mL"},
      {"measurement": "AUC(0-t)", "setting": "in vivo [1]; [7]", "result": 3370, "unit": "ng·h/mL"},
      {"measurement": "AUC(0-inf)", "setting": "in vivo [1]; [7]", "result": 3430, "unit": "ng·h/mL"},
      {"measurement": "Cmax", "setting": "in vivo [1]; [7]", "result": 1450, "unit": "ng/mL"},
      {"measurement": "concentration at 0.5 h", "setting": "in vivo [1]; [8]", "result": 1450, "unit": "ng/mL"},
      {"measurement": "concentration at 1 h", "setting": "in vivo [1]; [8]", "result": 1160, "unit": "ng/mL"},
      {"measurement": "concentration at 2 h", "setting": "in vivo [1]; [8]", "result": 781, "unit": "ng/mL"},
      {"measurement": "concentration at 9 h", "setting": "in vivo [1]; [8]", "result": 31.3, "unit": "ng/mL"},
      {"measurement": "Tmax", "setting": "in vivo [1]; [7]", "result": 40.2, "unit": "min"},
      {"measurement": "AUC(0-t)", "setting": "in vivo [1]; Sprague-Dawley, iv, 1 mg/kg", "result": 681, "unit": "ng·h/mL"},
      {"measurement": "AUC(0-inf)", "setting": "in vivo [1]; Sprague-Dawley, iv, 1 mg/kg", "result": 694, "unit": "ng·h/mL"},
      {"measurement": "Cmax", "setting": "in vivo [1]; Sprague-Dawley, iv, 1 mg/kg", "result": 646, "unit": "ng/mL"},
      {"measurement": "MRT", "setting": "in vivo [1]; Sprague-Dawley, iv, 1 mg/kg", "result": 69.6, "unit": "min"},
      {"measurement": "half-life", "setting": "in vivo [1]; Sprague-Dawley, iv, 1 mg/kg", "result": 52.8, "unit": "min"},
      {"measurement": "Tmax", "setting": "in vivo [1]; Sprague-Dawley, iv, 1 mg/kg", "result": 4.98, "unit": "min"},
      {"measurement": "Cmax of 100", "setting": "in vivo [1]; Sprague-Dawley, po, 10 mg/kg", "result": 1447, "unit": "ng/mL"},
      {"measurement": "Tmax of 100", "setting": "in vivo [1]; Sprague-Dawley, po, 10 mg/kg", "result": 30, "unit": "min"},
      {"measurement": "AUC(0-t)", "setting": "in vivo [1]; Sprague-Dawley, po, 10 mg/kg", "result": 2800, "unit": "ng·h/mL"},
      {"measurement": "AUC(0-inf)", "setting": "in vivo [1]; Sprague-Dawley, po, 10 mg/kg", "result": 2860, "unit": "ng·h/mL"},
      {"measurement": "Cmax", "setting": "in vivo [1]; Sprague-Dawley, po, 10 mg/kg", "result": 1430, "unit": "ng/mL"},
      {"measurement": "MRT", "setting": "in vivo [1]; Sprague-Dawley, po, 10 mg/kg", "result": 126, "unit": "min"},
      {"measurement": "half-life", "setting": "in vivo [1]; Sprague-Dawley, po, 10 mg/kg", "result": 82.8, "unit": "min"},
      {"measurement": "Tmax", "setting": "in vivo [1]; Sprague-Dawley, po, 10 mg/kg", "result": 30, "unit": "min"},
      {"measurement": "inhibition of PP2A in circulating white blood cells", "setting": "[2]; 100 slow iv 0.375 mg/kg", "result": 9, "unit": "%"},
      {"measurement": "inhibition of PP2A in circulating white blood cells", "setting": "[2]; 100 slow iv 0.75 mg/kg", "result": 15, "unit": "%"},
      {"measurement": "inhibition of PP2A in circulating white blood cells", "setting": "[2]; 100 slow iv 1.5 mg/kg", "result": 25, "unit": "%"},
      {"measurement": "stability in the presence of microsomes", "setting": "[3]", "result": "stable relative to verapamil"},
      {"measurement": "passage of the blood brain barrier (BBB) (statement)", "setting": "[4]", "result": "does not readily pass the blood brain barrier"},
      {"measurement": "bioavailability", "setting": "in vivo [5]", "result": 1, "unit": "%"}
    ]}
  ]
}
